In patent USH1168H, “Inhibitors of protein kinase C activity as protectors against septic shock and reducers of ARDS” (priority 1991, dated 1993):
Entries after “also recorded” stand apart in the source; their conditions may differ.

Experiments:
rat aortic rings [1] = test: KCl-induced contraction of rat aortic rings after 16 h incubation with phorbol dibutyrate; format: cell-based; conditions: for EC50: Rattus norvegicus, 16 h
Method: (§1) (Panel B) Contraction to KCl by rings incubated and denoted with the same symbols as detailed above. Four rings were prepared from each rat and one ring allocated into each medium formulation to evaluate responses to NE. Rings were similarly prepared to determine responses to KCl. Data presented as in FIG. 1. N=6 rats apiece for assessment of responses to NE and KCl.
(§2) (Panel B) Contraction to KCl by rings incubated and denoted with the same symbols as detailed above. Four rings were prepared from each rat and one ring allocated into each medium formulation. Data is presented as in FIG. 1. N=8 rats for assessment of responses to both NE and KCl.
(§3) Tissue preparation and incubation. Male Sprague-Dawley rats (250-350 g, Taconic Farms, Germantown, N.Y.) were used. Rat thoracic aortic rings were prepared and incubated as detailed by McKenna (14). In brief, 4 or 6 rings were prepared from each rat. Care was taken during dissection to maintain the patency of the endothelium. Some aortas were de-endothelialized before sectioning into rings by perfusion with phosphate buffered saline (PBS) containing 1% deoxycholate for 30 sec followed by a PBS and bubble rinse for 5 min. Rings were incubated in DME (Dulbecco's Modified Eagle's medium) supplemented with 1% fetal calf serum, 100 μg/ml streptomycin, and 100 U/ml penicillin. During incubation, the rings were exposed to combinations of LPS (10 or 35 ng/ml), H7 (25 μM), HA1004 (N-(2-guanidinoethyl)-5-isoquinolinesulfonamide) (25 μM), sphingosine (20 μM), or their vehicles. […] Rings used in measures of contractile performance were placed individually in Petri dishes containing 1.2 ml DME and were distributed so that tissue isolated from each aorta was allocated to every combination of treatments within an experiment. […] All tissue isolated from an aorta (six rings) was allocated to a single treatment. The media and rings were rotated gently for 16-18 hr in an incubator at 37° C. under a 95% O2 -5% CO2 atmosphere.
(§4) Measurement of aortic ring contraction. After incubation, rings were mounted in tissue baths, equilibrated, and pre-contracted as previously detailed (14). These procedures required approximately 90 min. Rings were maintained in Krebs Ringer Bicarbonate buffer (KRB, 14). Contractions by six or eight rings were measured simultaneously and recorded on multichannel strip chart recorders. […] Other rings were contracted by withdrawing KRB from the tissue baths and adding increasing volumes of a high KCl KRB (120 mM, made by equimolar substitution of KCl for NaCl) to the baths to yield final KCl concentrations of 10 to 80 mM. All rings were blotted and weighed after experiments were completed.
(§5) Statistics. […] Tests for differences between EC50 values were based on log EC50 values (17). EC50 values were then converted to […] means to allow expression as nanomolar concentrations. Examination of differences among four or six treatment means was by randomized blocks analysis of variance; if significant differences were present, then pairs of means were tested by Student-Newman-Keuls a posteriori tests (18). Paired t-tests were used to assess differences between two treatment means. […] Differences with probabilities of 0.05 or less were accepted as significant. All data are expressed as means±SEM.

rat aortic rings [2] = test: NE-induced contraction of rat aortic rings after 16 h incubation with phorbol dibutyrate; format: cell-based; design: contractions to NE; vascular suppression: dose or concentration left out as unconfirmed; conditions: for EC50: Rattus norvegicus, 16 h
Method: as §1, §2, §3, §4, §5

rat aortic rings [3] = test: Direct contraction of rat aortic rings by phorbol dibutyrate; format: cell-based; design: Emax: dose or concentration left out as unconfirmed; conditions: for EC50: read-out: EC50 for contraction by PDB
Method: Four rings were prepared from each rat and one ring allocated into each medium formulation. Data is presented as in FIG. 1.
as §3, §4, §5

[4] = test system: intact endothelium rat aortic rings; test: KCl-induced contraction of intact rat aortic rings after 16 h incubation with LPS and/or PKC inhibitors; format: cell-based; conditions: for EC50: Rattus norvegicus, 16 h, intact endothelium, read-out: EC50 value for KCl stimulated contraction (EC50 of the agonist KCl)
Method: FIG. 2 is a graph showing contraction to cumulative doses of KCl by rat aortic rings incubated for 16 hr in combinations of control, LPS, H7, and HA1004 treated media. (Panel A) Response by rings incubated in medium only (open circles), medium plus H7 (25 μM, closed circles), medium containing LPS (10 ng/ml, open triangles), and medium containing LPS plus H7 (closed triangles). (Panel B) For clarity in presentation, responses by rings incubated in medium only (open circles) and LPS treated medium (open triangles) are reproduced from Panel A. Additional rings were incubated in medium plus HA1004 (25 μM, closed circles), and medium containing LPS plus HA1004 (closed triangles). Rings were prepared and data is presented as described in FIG. 1. N=6 rats.
as §3, §4, §5

endothelial cells [5] = conditions: literature (3); cited from earlier work
[6] = test system: intact endothelium rat aortic rings; test: NE-induced contraction of intact rat aortic rings after 16 h incubation with LPS and/or PKC inhibitors; format: cell-based; conditions: for EC50: Rattus norvegicus, 16 h, intact endothelium, read-out: EC50 value for NE stimulated contraction (EC50 of the agonist NE)
Method: FIG. 1 is a graph showing contraction to cumulative doses of NE by rat aortic rings incubated for 16 hr in combinations of control, LPS (endotoxin or lipopolysaccharide), H7, and N-(2-guanidinoethyl)-5-isoquinolinesulfonamide (HA1004; a negative control for H7) treated media. (Panel A) Responses by rings incubated in medium only (open circles), medium plus H7 (25 μM, closed circles), medium containing LPS (10 ng/ml, open triangles), and medium containing LPS plus H7 (closed triangles). (Panel B) For clarity in presentation, responses by rings incubated in medium only (open circles) and LPS treated medium (open triangles) are reproduced from Panel A. Additional rings were incubated in medium plus HA1004 (25 μM, closed circles), and medium containing LPS plus HA1004 (closed triangles). Six rings were prepared from each rat and one ring allocated into each medium formulation. […] The curves are the best fit of the data by nonlinear least squares to a polynomial model. N=8 rats.
as §3, §4, §5

[7] = test system: deendothelialized rat aortas; conditions: literature (26); cited from earlier work
endothelial cells [8] = conditions: literature (1, 2); cited from earlier work
platelets = conditions: pretreatment; stimulation with thrombin, OAG, linoleic or linolelaidic acid (25); cited from earlier work
human neutrophils = conditions: PMA alone (31); cited from earlier work
[9] = test system: Rabbit aortic smooth muscle cells; conditions: literature (29); cited from earlier work
[10] = test system: Rabbit aortic smooth muscle cells; conditions: literature; cited from earlier work
PKC = conditions: literature (33,34); cited from earlier work
[11] = LPS 10 ng/ml plus inhibitor 25 μM
[12] = LPS-treated media (10 ng/ml), alone or plus inhibitor 25 μM
[13] = control media (no LPS) plus inhibitor 25 μM
[14] = inhibitor 25 μM by itself, no LPS

Compound: CCCC(=O)O[C@@H]1[C@@H](C)[C@@]2(O)[C@@H](C=C(CO)C[C@@]3(O)C(=O)C(C)=C[C@@H]23)[C@@H]2C(C)(C)[C@]12OC(=O)CCC [4α-PDB, 4-α-phorbol-12,13-dibutyrate]
- alterations in EC50 values for KCl (rat aortic rings [1]; 10 μM 4α-PDB): no significant alterations in EC50 values for the agonists
- contractions to KCl (rat aortic rings [1]; 10 μM 4α-PDB): significantly impaired contractions to NE and KCl
- EC50 (rat aortic rings [1]; read-out: EC50 value for KCl contraction (EC50 of the agonist KCl), rings incubated with 4α-PDB 10.0 μM, 16 h): 28000 µM
- contractions to NE; vascular suppression (rat aortic rings [2]): significantly impaired contractions to NE and KCl; also recorded: equally effective at causing vascular suppression
- alterations in EC50 values for NE (rat aortic rings [2]; 10 μM 4α-PDB): no significant alterations in EC50 values for the agonists
- EC50 (rat aortic rings [2]; read-out: EC50 value for NE contraction (EC50 of the agonist NE), rings incubated with 4α-PDB 10.0 μM, 16 h): 0.286 µM
- contraction of aortic rings by 4α-PDB itself (rat aortic rings [3]; concentrations up to 10 μM (data not shown)): could not contract aortic rings at concentrations up to 10 μM

Compound: CC1CNCCN1S(=O)(=O)c1cccc2cnccc12 (stereo not shown) [H7, 1-(5-isoquinolinylsulfonyl)-2-methyl piperazine]
- EC50 and Emax values to KCl versus control tissue [4, 11]: did not vary significantly from control tissue
- protection against LPS-induced contractile dysfunction (KCl) [4, 11]: shielded the tissue from LPS-induced contractile dysfunction
- EC50 [4, 12]: 32000 µM
- EC50 [4, 13]: 28000 ± 1000 µM
- maximum contraction to KCl [4, 14]: significant increases in maximum contraction
- sensitivity to KCl [4, 14]: no enhancement in sensitivity to KCl
- endothelial cell permeability response to inflammatory agents (endothelial cells [5]): abrogated
- EC50 and Emax (sensitivity and maximum contraction) to NE versus control tissue [6, 11]: not significantly different from control tissue
- EC50 [6, 12]: 0.099 µM
- EC50 [6, 13]: 0.051 ± 0.015 µM
- blocking of LPS effects on contraction to NE ([6]; co-incubation, inhibitor 25 μM, LPS 10 ng/ml): blocked
- contractile function / sensitivity to NE [6, 14]: little change in contractile function
- abrogation of LPS effects on contractile function ([6]; intact rings, H7 25 μM): clearly abrogated the majority of the deleterious effects of LPS on rat aortic tissue contractile function
- blocking of PDB induced contraction [7]: ineffective blocker of PDB induced contraction
- inhibition of KCl elicited contraction [7]: significantly inhibits KCl elicited contraction
- adhesive proteins on endothelial cell surfaces (endothelial cells [8]): reduced
- platelet aggregation after stimulation (platelets): blocked

Compound: CCCC(=O)O[C@@H]1[C@@H](C)[C@@]2(O)[C@@H](C=C(CO)C[C@]3(O)C(=O)C(C)=C[C@@H]23)[C@@H]2C(C)(C)[C@]12OC(=O)CCC [PDB, 4β-phorbol-12,13-dibutyrate]
- EC50 (rat aortic rings [1]; read-out: EC50 value for KCl contraction (EC50 of the agonist KCl), rings incubated with 4β-PDB 0.1 μM, 16 h): 22000 µM
- EC50 (rat aortic rings [1]; read-out: EC50 value for KCl contraction (EC50 of the agonist KCl), rings incubated with 4β-PDB 1.0 μM, 16 h): 27000 µM
- EC50 (rat aortic rings [1]; read-out: EC50 value for KCl contraction (EC50 of the agonist KCl), rings incubated with 4β-PDB 10.0 μM, 16 h): 36000 µM
- EC50 (rat aortic rings [2]; read-out: EC50 value for NE contraction (EC50 of the agonist NE), rings incubated with 4β-PDB 0.1 μM, 16 h): 0.056 µM
- EC50 (rat aortic rings [2]; read-out: EC50 value for NE contraction (EC50 of the agonist NE), rings incubated with 4β-PDB 1.0 μM, 16 h): 0.184 µM
- EC50 (rat aortic rings [2]; read-out: EC50 value for NE contraction (EC50 of the agonist NE), rings incubated with 4β-PDB 10.0 μM, 16 h): 0.283 µM
- EC50 (rat aortic rings [3]; Rattus norvegicus, 16 h): 0.041 ± 0.003 µM
- EC50 (rat aortic rings [3]; Rattus norvegicus): 0.032 ± 0.004 µM
- Emax (rat aortic rings [3]; Rattus norvegicus, read-out: maximum contraction caused by PDB): > 90%

Compound: CCCCCCCCCCCCCC(=O)O[C@@H]1[C@@H](C)[C@@]2(O)[C@@H](C=C(CO)C[C@]3(O)C(=O)C(C)=C[C@@H]23)[C@@H]2C(C)(C)[C@]12OC(C)=O [PMA]
- synthesis of PAF or LTB4 (human neutrophils): could not cause synthesis of either PAF or LTB4

Compound: CCCCCCCCCCCCCC(=O)O[C@@H]1[C@@H](C)[C@@]2(O)[C@@H](C=C(CO)C[C@]3(O)C(=O)C(C)=C[C@@H]23)[C@@H]2C(C)(C)[C@]12OC(C)=O [TPA]
- whole blood serum induced intracellular Ca^2+ mobilization [9]: inhibits whole blood serum induced intracellular Ca^2+ mobilization
- cell proliferation [10]: modulates cell proliferation

Compound: CN[C@@H]1C[C@H]2O[C@@](C)([C@@H]1OC)n1c3ccccc3c3c4c(c5c6ccccc6n2c5c31)C(=O)NC4 [staurosporine]
- adhesive proteins on endothelial cell surfaces (endothelial cells [8]): reduced
- platelet aggregation after stimulation (platelets): blocked

Compound: lipid A
- activation of PKC in vitro (PKC): can directly activate PKC in vitro

Compound: polymyxin B
- platelet aggregation after stimulation (platelets): blocked
